From patent publication US10266549B2, “ULK1 inhibitors and methods using same” (SALK INSTITUTE FOR BIOLOGICAL STUDIES, priority 2014, dated 2019)

What follows are compounds tested against ULK1 (Homo sapiens (Human), UniProt O75385) (assay: ULK1 inhibition assay (Table 1)). Conditions: * = tested as a mixture of regioisomers.
Format: biochemical

Chain of ULK1 (O75385 whole entry, species assumed): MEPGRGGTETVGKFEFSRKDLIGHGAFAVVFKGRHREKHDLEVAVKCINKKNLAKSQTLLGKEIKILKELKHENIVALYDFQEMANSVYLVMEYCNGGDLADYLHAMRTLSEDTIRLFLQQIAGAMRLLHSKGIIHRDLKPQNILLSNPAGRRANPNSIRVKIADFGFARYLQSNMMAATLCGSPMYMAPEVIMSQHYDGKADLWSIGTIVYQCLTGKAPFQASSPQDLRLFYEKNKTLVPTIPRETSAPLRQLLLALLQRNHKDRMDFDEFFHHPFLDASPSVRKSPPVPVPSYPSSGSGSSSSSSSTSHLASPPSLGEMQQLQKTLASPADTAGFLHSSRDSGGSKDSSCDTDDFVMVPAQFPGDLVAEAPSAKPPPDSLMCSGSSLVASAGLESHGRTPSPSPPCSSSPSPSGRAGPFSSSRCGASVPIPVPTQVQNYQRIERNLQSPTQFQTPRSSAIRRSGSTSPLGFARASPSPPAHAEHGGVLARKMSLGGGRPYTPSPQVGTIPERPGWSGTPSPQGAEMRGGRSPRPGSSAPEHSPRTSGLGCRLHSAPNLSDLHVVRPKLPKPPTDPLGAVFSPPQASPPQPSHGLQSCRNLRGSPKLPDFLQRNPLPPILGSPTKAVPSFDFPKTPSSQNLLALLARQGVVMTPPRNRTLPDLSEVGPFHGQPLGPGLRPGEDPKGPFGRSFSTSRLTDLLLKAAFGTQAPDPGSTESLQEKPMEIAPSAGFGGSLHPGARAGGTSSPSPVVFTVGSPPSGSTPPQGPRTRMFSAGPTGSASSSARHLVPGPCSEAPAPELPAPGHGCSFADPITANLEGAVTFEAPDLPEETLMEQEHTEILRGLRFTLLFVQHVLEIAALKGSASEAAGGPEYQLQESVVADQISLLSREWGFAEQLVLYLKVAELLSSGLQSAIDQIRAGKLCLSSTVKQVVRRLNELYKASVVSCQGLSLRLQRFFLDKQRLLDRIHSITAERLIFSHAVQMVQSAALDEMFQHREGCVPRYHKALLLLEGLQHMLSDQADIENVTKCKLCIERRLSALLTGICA

| SMILES | IC50 [nM] |
| --- | --- |
| CNC(=O)c1ccccc1Nc1nc(Nc2cc(OC)ccc2C)ncc1Br [compound 17, 2-(5-Bromo-2-(5-methoxy-2-methylphenylamino)pyrimidin-4-ylamino)-N-methylbenzamide] | < 200 |
| CNC(=O)c1ccccc1Nc1nc(Nc2ccccc2C)ncc1Cl [compound 53, 2-(5-Chloro-2-(o-tolylamino)pyrimidin-4-ylamino)-N-methylbenzamide] | > 2000 |
| COc1c(C)cnc(CNc2nc(Nc3ccc4c(c3)CCC(=O)N4)ncc2C(F)(F)F)c1C [compound 82, 6-((4-(((4-Methoxy-3,5-dimethylpyridin-2-yl)methyl)amino)-5-(trifluoromethyl)pyrimidin-2-yl)amino)-3,4-dihydroquinolin-2(1H)-one] | < 200 |
| O=C1CCc2cc(Nc3ncc(C(F)(F)F)c(CCc4ccccc4)n3)ccc2N1 [compound 66, 6-((4-Phenethyl-5-(trifluoromethyl)pyrimidin-2-yl)amino)-3,4-dihydroquinolin-2(1H)-one] | 200 to 2000 |
| COc1ccc(Nc2ncc(C(F)(F)F)c(O)n2)cc1 [105b, 2-((4-methoxyphenyl)amino)-5-(trifluoromethyl)pyrimidin-4-ol] | > 2000 |
| CNC(=O)c1ccccc1Oc1nc(Nc2cccc(F)c2F)ncc1C(F)(F)F [compound 113, 2-((2-((2,3-difluorophenyl)amino)-5-(trifluoromethyl)pyrimidin-4-yl)oxy)-N-methylbenzamide] | > 2000 |
| COc1cc(Nc2nc(-n3nnc4ccccc43)ncc2Br)cc(O)c1OC [Example 331b] | 200 to 2000 |
| COc1cc(N2CCOCC2)ccc1Nc1ncc(C(F)(F)F)c(NCc2cccc(S(C)(=O)=O)c2)n1 [compound 52, N^2-(2-Methoxy-4-morpholinophenyl)-N^4-(3-(methylsulfonyl)benzyl)-5-(trifluoromethyl)pyrimidine-2,4-diamine] | > 2000 |
| FC(F)(F)c1cnc(NC2CC2)nc1Nc1cnc2[nH]ccc2c1 [152b, N^2-cyclopropyl-N^4-(1H-pyrrolo[2,3-b]pyridin-5-yl)-5-(trifluoromethyl)pyrimidine-2,4-diamine] | 200 to 2000 |
| FC(F)(F)c1cnc(N2CCCC2)nc1Nc1ccc2c(c1)OCO2 [164a, N-(benzo[d][1,3]dioxol-5-yl)-2-(pyrrolidin-1-yl)-5-(trifluoromethyl)pyrimidin-4-amine] | > 2000 |
| O=C1CCc2cc(Nc3nc(NC4CC4)ncc3C(F)(F)F)ccc2N1 [131b, 6-((2-(cyclopropylamino)-5-(trifluoromethyl)pyrimidin-4-yl)amino)-3,4-dihydroquinolin-2(1H)-one] | < 200 |
| O=C1CCc2cc(Nc3ncc(C(F)(F)F)c(Nc4ccccc4N4CCOCC4)n3)ccc2N1 [118a, 6-((4-((2-morpholinophenyl)amino)-5-(trifluoromethyl)pyrimidin-2-yl)amino)-3,4-dihydroquinolin-2(1H)-one] | < 200 |
| CNC(=O)c1ccccc1Oc1nc(Nc2cc(OC)ccc2OC)ncc1C(F)(F)F [109a, 2-((2-((2,5-dimethoxyphenyl)amino)-5-(trifluoromethyl)pyrimidin-4-yl)oxy)-N-methylbenzamide] | > 2000 |
| COc1cccc(Nc2ncc(Cl)c(Nc3cccc(OC)c3)n2)c1 [143b, 5-chloro-N^2,N^4-bis(3-methoxyphenyl) pyrimidine-2,4-diamine] | < 200 |
| CNC(=O)c1ccccc1Nc1nc(Nc2ccc3c(c2)OCCO3)ncc1Cl [compound 51, 2-(5-Chloro-2-(2,3-dihydrobenzo[b][1,4]dioxin-6-ylamino)pyrimidin-4-ylamino)-N-methylbenzamide] | < 200 |
| O=C1CCc2cc(Nc3ncc(C(F)(F)F)c(NC4CCCC4)n3)ccc2N1 [160a, 6-((4-(cyclopentylamino)-5-(trifluoromethyl)pyrimidin-2-yl)amino)-3,4-dihydroquinolin-2(1H)-one] | < 200 |
| CNC(=O)c1ccccc1Oc1nc(Nc2cccc(OC)c2OC)ncc1C(F)(F)F [115a, 2-((2-((2,3-dimethoxyphenyl)amino)-5-(trifluoromethyl)pyrimidin-4-yl)oxy)-N-methylbenzamide] | > 2000 |
| COc1ccc(C)c(Nc2ncc(Cl)c(Nc3nccc(C)n3)n2)c1 [compound 55, 5-Chloro-N^2-(5-methoxy-2-methylphenyl)-N^4-(4-methylpyrimidin-2-yl)pyrimidine-2,4-diamine] | > 2000 |
| N#CCc1cccc(Nc2nc(Nc3ccc4c(c3)CCC(=O)N4)ncc2C(F)(F)F)c1 [compound 61, 2-(3-(2-(2-Oxo-1,2,3,4-tetrahydroquinolin-6-ylamino)-5-(trifluoromethyl)pyrimidin-4-ylamino)phenyl)acetonitrile] | < 200 |
| O=C1CCc2cc(Nc3ncc(C(F)(F)F)c(OC4Cc5ccccc5C4)n3)ccc2N1 [180a, 6-((4-((2,3-dihydro-1H-inden-2-yl)oxy)-5-(trifluoromethyl)pyrimidin-2-yl)amino)-3,4-dihydroquinolin-2(1H)-one] | < 200 |
| CNC(=O)c1ccccc1Nc1nc(Nc2cc(OC)c(OC)c(OC)c2)ncc1/C=C/c1ccccc1 [compound 71, (E)-N-Methyl-2-((5-styryl-2-((3,4,5-trimethoxyphenyl)amino)pyrimidin-4-yl)amino)benzamide] | < 200 |

| SMILES | IC50 [nM] |
| --- | --- |
| COc1ccc(C)c(Nc2ncc(Cl)c(Nc3cccc(CC#N)c3)n2)c1 [compound 54, 2-(3-(5-Chloro-2-(5-methoxy-2-methylphenylamino)pyrimidin-4-ylamino)phenyl)acetonitrile] | > 2000 |
| FC(F)(F)c1cnc(Nc2cnc3[nH]ccc3c2)nc1NC1CCC1 [161a, N^4-cyclobutyl-N^2-(1H-pyrrolo[2,3-b]pyridin-5-yl)-5-(trifluoromethyl)pyrimidine-2,4-diamine] | < 200 |
| COc1ccc(Nc2nc(Nc3cc(OC)c(OC)c(OC)c3)ncc2Br)cn1 [compound 25, 5-Bromohloro-N^4-(6-methoxypyridin-3-yl)-N^2-(3,4,5-trimethoxyphenyl)pyrimidine-2,4-diamine] | < 200 |
| COc1cc(N2CCOCC2)ccc1Nc1ncc(C(F)(F)F)c(Nc2ccccn2)n1 [compound 46, N^2-(2-Methoxy-4-morpholinophenyl)-N^4-(pyridin-2-yl)-5-(trifluoromethyl) pyrimidine-2,4-diamine] | 200 to 2000 |
| FC(F)Oc1ccccc1Nc1ncc(C(F)(F)F)c(Nc2ccccc2OC(F)F)n1 [120b, N^2,N^4-bis(2-(difluoromethoxy)phenyl)-5-(trifluoromethyl)pyrimidine-2,4-diamine] | 200 to 2000 |
| Fc1c(Nc2nc(Nc3ccc4c(c3)OCO4)ncc2C(F)(F)F)cccc1C(F)(F)F [141b, N^2-(benzo[d][1,3]dioxol-5-yl)-N^4-(2-fluoro-3-(trifluoromethyl)phenyl)-5-(trifluoromethyl)pyrimidine-2,4-diamine] | < 200 |
| COc1ccc(Nc2nc(Nc3ccc(N4CCOCC4)cc3OC)ncc2Cl)cn1 [compound 27, 5-Chloro-N^2-(2-methoxy-4-morpholinophenyl)-N^4-(6-methoxypyridin-3-yl)pyrimidine-2,4-diamine] | > 2000 |
| CNC(=O)c1ccccc1Sc1nc(Nc2cc(OC)ccc2C)ncc1C(F)(F)F [compound 117, 2-((2-((5-methoxy-2-methylphenyl)amino)-5-(trifluoromethyl)pyrimidin-4-yl)thio)-N-methylbenzamide] | > 2000 |
| CNC(=O)c1ccccc1Oc1nc(Nc2ccc(C)cc2Cl)ncc1C(F)(F)F [compound 107, 2-((2-((2-chloro-4-methylphenyl)amino)-5-(trifluoromethyl)pyrimidin-4-yl)oxy)-N-methylbenzamide] | > 2000 |
| O=C1CCc2cc(Nc3nc(OC4Cc5ccccc5C4)ncc3C(F)(F)F)ccc2N1 [180b, 6-((2-((2,3-dihydro-1H-inden-2-yl)oxy)-5-(trifluoromethyl)pyrimidin-4-yl)amino)-3,4-dihydroquinolin-2(1H)-one] | > 2000 |
| O=C1CCc2cc(Nc3nc(NC4CCCC4)ncc3C(F)(F)F)ccc2N1 [160b, 6-((2-(cyclopentylamino)-5-(trifluoromethyl)pyrimidin-4-yl)amino)-3,4-dihydroquinolin-2(1H)-one] | 200 to 2000 |
| O=C1CCc2cc(Nc3ncc(C(F)(F)F)c(Nc4ccccc4)n3)ccc2N1 [compound 48, 6-(4-(Phenylamino)-5-(trifluoromethyl)pyrimidin-2-ylamino)-3,4-dihydroquinolin-2(1H)-one] | < 200 |
| CNc1ncc(C(F)(F)F)c(Nc2cnc3[nH]ccc3c2)n1 [182b, N2-methyl-N4-(1H-pyrrolo[2,3-b]pyridin-5-yl)-5-(trifluoromethyl)pyrimidine-2,4-diamine] | 200 to 2000 |
| CNC(=O)c1ccccc1Nc1nc(Nc2cc(OC)c(OC)c(OC)c2)ncc1-c1ccccc1 [compound 73, N-Methyl-2-(5-phenyl-2-(3,4,5-trimethoxyphenylamino)pyrimidin-4-ylamino)benzamide] | < 200 |
| COc1ccc(Nc2nc(Nc3ccc4[nH]ccc4c3)ncc2Br)cn1 [compound 30, 5-Bromo-N^2-(1H-indol-5-yl)-N^4-(6-methoxypyridin-3-yl) pyrimidine-2,4-diamine] | < 200 |
| COc1cc(N2CCOCC2)ccc1Nc1nc(Nc2ccc3c(c2)CCC(=O)N3)ncc1C(F)(F)F [123a, 6-((4-((2-methoxy-4-morpholinophenyl)amino)-5-(trifluoromethyl)pyrimidin-2-yl)amino)-3,4-dihydroquinolin-2(1H)-one] | < 200 |
| CNc1nc(Nc2cnc3[nH]ccc3c2)ncc1C(F)(F)F [182a, N4-methyl-N2-(1H-pyrrolo[2,3-b]pyridin-5-yl)-5-(trifluoromethyl)pyrimidine-2,4-diamine] | < 200 |
| CNC(=O)c1ccccc1Nc1nc(Nc2ccc3c(c2)CCC(=O)N3)ncc1C(F)(F)F [compound 76, N-Methyl-2-(2-(2-oxo-1,2,3,4-tetrahydroquinolin-6-ylamino)-5-(trifluoromethyl)pyrimidin-4-ylamino)benzamide] | < 200 |
| CNC(=O)c1ccccc1Nc1nc(Nc2cc(OC)ccc2C)ncc1Cl [compound 16, 2-(5-Chloro-2-(5-methoxy-2-methylphenylamino)pyrimidin-4-ylamino)-N-methylbenzamide] | < 200 |
| CNC(=O)c1ccccc1Nc1nc(Nc2cc3c(cc2C)OCO3)ncc1Cl [compound 57, 2-(5-Chloro-2-(6-methylbenzo[d][1,3]dioxol-5-ylamino)pyrimidin-4-ylamino)-N-methylbenzamide] | < 200 |
